Measurements: PubChem BioAssay AID330 (DTP/NCI, 2004)
Where “and” joins values, the source holds several entries; their conditions need not be identical. Equal entries are not always repeated. Inconclusive results and toxic doses are left out. The calls were made as follows: active = survival T/C of 150% or more; inactive = T/C below 125% in these data.

Test system: P388 leukemia ip, CD2F1 mice, survival T/C
Test: NCI In Vivo Anticancer Drug Screen. Data for tumor model P388 Leukemia (intraperitoneal) in CD2F1 (CDF1) mice
Conditions: endpoint: median survival time, higher = longer survival
Method in brief: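 Mice carrying the transplanted tumor received test compound or vehicle. Survival was recorded in each group, and the value is the treated-group measurement divided by that of the vehicle-treated control group.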

[1] = dose: 50.0 mg/kg/injection, schedule: Q01DX005 (ip), vehicle: Klucel (hydroxypropylcellulose) (HPC)
[2] = dose: 50.0 mg/kg/injection, schedule: Q01DX009 (ip), vehicle: saline with Tween-80
[3] = dose: 100.0 mg/kg/injection, schedule: Q01DX005 (ip), vehicle: Klucel (hydroxypropylcellulose) (HPC)
[4] = dose: 100.0 mg/kg/injection, schedule: Q01DX009 (ip), vehicle: saline with Tween-80
[5] = dose: 200.0 mg/kg/injection, schedule: Q01DX005 (ip), vehicle: Klucel (hydroxypropylcellulose) (HPC)
[6] = dose: 12.5 mg/kg/injection, schedule: Q01DX009 (ip), vehicle: saline with Tween-80
[7] = dose: 25.0 mg/kg/injection, schedule: Q01DX009 (ip), vehicle: saline with Tween-80
[8] = dose: 25.0 mg/kg/injection, schedule: Q01DX005 (ip), vehicle: Klucel (hydroxypropylcellulose) (HPC)

Measured: T/C

O=C1CSC(=S)N1c1ccc(I)cc1
inactive: dose: 50.0 mg/kg/injection, schedule: Q01DX009 (ip), vehicle: suspension in saline 101 % of control | dose: 100.0 mg/kg/injection, schedule: Q01DX009 (ip), vehicle: suspension in saline 101 % of control | dose: 200.0 mg/kg/injection, schedule: Q01DX009 (ip), vehicle: suspension in saline 114 % of control

COc1c(Br)cc(/C=C(/C)[N+](=O)[O-])cc1Br
inactive: dose: 25.0 mg/kg/injection, schedule: Q04DX003 (ip), vehicle: saline with Tween-80 112 % of control | dose: 50.0 mg/kg/injection, schedule: Q04DX003 (ip), vehicle: saline with Tween-80 106 % of control | dose: 100.0 mg/kg/injection, schedule: Q04DX003 (ip), vehicle: saline with Tween-80 122 % of control

O=C(O)CCC(=O)c1ccc2ccc3cccc4ccc1c2c34
inactive: [1] 102 % of control | [2] 101 % of control | [3] 103 % of control | [4] 115 % of control | [5] 99 % of control

NNS(=O)(=O)CCC(NC(=O)OCc1ccccc1)C(=O)OCc1ccccc1 (configuration not stated)
inactive: dose: 12.5 mg/kg/injection, schedule: Q01DX009 (ip), vehicle: other 98 % of control | dose: 25.0 mg/kg/injection, schedule: Q01DX009 (ip), vehicle: other 103 % of control | dose: 50.0 mg/kg/injection, schedule: Q01DX009 (ip), vehicle: other 94 % of control | dose: 100.0 mg/kg/injection, schedule: Q01DX009 (ip), vehicle: other 94 % of control | dose: 200.0 mg/kg/injection, schedule: Q01DX009 (ip), vehicle: other 98 % of control

COC1CCC2=C(C1)C(=O)CC1c3ccccc3CN21 (configuration not stated)
inactive: [6] 100 % of control | [7] 100 % of control | [2] 100 % of control

CCN1/C(=C/C=C/C=C/c2sc3ccccc3[n+]2CC)Sc2ccccc21
inactive: dose: 0.05 mg/kg/injection, schedule: Q01DX009 (ip), vehicle: saline 123 % of control | dose: 0.06 mg/kg/injection, schedule: Q01DX009 (ip), vehicle: saline 124 % of control | dose: 0.08 mg/kg/injection, schedule: Q01DX009 (ip), vehicle: saline 107 % of control | dose: 0.12 mg/kg/injection, schedule: Q01DX009 (ip), vehicle: saline 117 % of control and 122 % of control | dose: 0.25 mg/kg/injection, schedule: Q01DX009 (ip), vehicle: saline 123 % of control | dose: 0.28 mg/kg/injection, schedule: Q01DX009 (ip), vehicle: saline 123 % of control

Nc1ncnc2c1nnn2CC(O)CO (configuration not stated)
inactive: dose: 60.0 mg/kg/injection, schedule: Q01DX005 (ip), vehicle: Klucel (hydroxypropylcellulose) (HPC) 99 % of control | dose: 120.0 mg/kg/injection, schedule: Q01DX005 (ip), vehicle: Klucel (hydroxypropylcellulose) (HPC) 92 % of control

CP(=O)(OCCOCCOP(C)(=O)c1ccccc1)c1ccccc1 (configuration not stated)
inactive: [1] 98 % of control | [3] 103 % of control | [5] 101 % of control

NC(Cc1cccc2ccccc12)C(=O)O (configuration not stated)
inactive: dose: 12.5 mg/kg/injection, schedule: Q01DX005 (ip), vehicle: Klucel (hydroxypropylcellulose) (HPC) 93 % of control | [8] 100 % of control | [1] 102 % of control and 110 % of control

CC(C)(C)C1CC=CCC1 (configuration not stated)
inactive: dose: 50.0 mg/kg/injection, schedule: Q01DX009 (ip), vehicle: saline sonified 109 % of control | dose: 100.0 mg/kg/injection, schedule: Q01DX009 (ip), vehicle: saline sonified 100 % of control

Cc1cn(CCCn2cnc3c(N)ncnc32)c(=O)[nH]c1=O
inactive: dose: 60.0 mg/kg/injection, schedule: Q01DX005 (ip), vehicle: saline with Tween-80 95 % of control | dose: 120.0 mg/kg/injection, schedule: Q01DX005 (ip), vehicle: saline with Tween-80 98 % of control | dose: 240.0 mg/kg/injection, schedule: Q01DX005 (ip), vehicle: saline with Tween-80 107 % of control

CC1(c2ccc(Cl)cc2)OC(=O)CC(=O)O1
inactive: [1] 99 % of control | [3] 100 % of control | [5] 100 % of control

CC(CCC(=O)O)(c1ccc(OC(=O)Nc2ccc([N+](=O)[O-])cc2)cc1)c1ccc(OC(=O)Nc2ccc([N+](=O)[O-])cc2)cc1
inactive: dose: 50.0 mg/kg/injection, schedule: Q01DX005 (ip), vehicle: saline with Tween-80 111 % of control | dose: 100.0 mg/kg/injection, schedule: Q01DX005 (ip), vehicle: saline with Tween-80 96 % of control | dose: 200.0 mg/kg/injection, schedule: Q01DX005 (ip), vehicle: saline with Tween-80 93 % of control

[Cl][Pt][Cl].[NH-]CCC[N-]CCCC[N-]CCC[NH-]
inactive: dose: 1.56 mg/kg/injection, schedule: Q04DX003 (ip), vehicle: saline 88 % of control | dose: 3.13 mg/kg/injection, schedule: Q04DX003 (ip), vehicle: saline 98 % of control and 94 % of control | dose: 6.25 mg/kg/injection, schedule: Q04DX003 (ip), vehicle: saline 107 % of control | dose: 12.5 mg/kg/injection, schedule: Q04DX003 (ip), vehicle: saline 99 % of control and 119 % of control and 123 % of control | dose: 25.0 mg/kg/injection, schedule: Q04DX003 (ip), vehicle: saline 102 % of control and 122 % of control

CN(C)N=Nc1ccc(-c2ccccc2)cc1
inactive: [6] 100 % of control and 104 % of control | [7] 102 % of control and 115 % of control | [2] 101 % of control and 110 % of control | [4] 102 % of control and 117 % of control

CC(=O)O[C@@H]1C[C@@H]2[C@@]3(C)CC[C@@H](OC(=O)CC(=O)O)C(C)(C)[C@@H]3CC[C@@]2(C)[C@]2(C)CCCC([C@]3(C)CC[C@H](C(C)(C)O)O3)[C@@H]12 (some centres not stated)
inactive: [8] 92 % of control | [1] 99 % of control | [3] 92 % of control and 97 % of control | [5] 86 % of control and 98 % of control | dose: 400.0 mg/kg/injection, schedule: Q01DX005 (ip), vehicle: Klucel (hydroxypropylcellulose) (HPC) 91 % of control

S=C(Nc1ccccc1)Nc1ncccn1
inactive: dose: 50.0 mg/kg/injection, schedule: Q01DX009 (ip), vehicle: Klucel (hydroxypropylcellulose) (HPC) 111 % of control | dose: 100.0 mg/kg/injection, schedule: Q01DX009 (ip), vehicle: Klucel (hydroxypropylcellulose) (HPC) 99 % of control

NC(=O)c1ccc(N)nc1
inactive: dose: 0.63 mg/kg/injection, schedule: Q01DX009 (ip), vehicle: saline 104 % of control | dose: 1.25 mg/kg/injection, schedule: Q01DX009 (ip), vehicle: saline 100 % of control | dose: 1.56 mg/kg/injection, schedule: Q01DX009 (ip), vehicle: saline with Tween-80 110 % of control | dose: 2.5 mg/kg/injection, schedule: Q01DX009 (ip), vehicle: saline 121 % of control | dose: 3.12 mg/kg/injection, schedule: Q01DX009 (ip), vehicle: saline with Tween-80 122 % of control | dose: 6.25 mg/kg/injection, schedule: Q01DX009 (ip), vehicle: saline with Tween-80 117 % of control and 95 % of control | dose: 6.25 mg/kg/injection, schedule: Q04DX003 (ip), vehicle: saline with Tween-80 109 % of control

N=C(N)Sc1ccccn1
inactive: dose: 100.0 mg/kg/injection, schedule: Q01DX009 (ip), vehicle: saline 94 % of control | dose: 200.0 mg/kg/injection, schedule: Q01DX009 (ip), vehicle: saline 101 % of control

C1=C(c2ccc(OCc3ccccc3)c(OCc3ccccc3)c2)CC2CCCCC2C1 (configuration not stated)
inactive: dose: 100.0 mg/kg/injection, schedule: Q04DX002 (ip), vehicle: saline with Tween-80 93 % of control | dose: 200.0 mg/kg/injection, schedule: Q04DX002 (ip), vehicle: saline with Tween-80 93 % of control | dose: 400.0 mg/kg/injection, schedule: Q04DX002 (ip), vehicle: saline with Tween-80 111 % of control

COc1cc2cc3c(c(O)c2c(O)c1/C=C/C(C)C)C(=O)CC(C)(OC(C)=O)C3 (configuration not stated)
inactive: dose: 2.5 mg/kg/injection, schedule: Q01DX005 (ip), vehicle: Klucel (hydroxypropylcellulose) (HPC) 103 % of control | dose: 5.0 mg/kg/injection, schedule: Q01DX005 (ip), vehicle: Klucel (hydroxypropylcellulose) (HPC) 117 % of control

C[C@@]12O[C@]1(C)[C@@H]1[C@H]3O[C@H]3[C@@H]2N(C(=O)OCC(Cl)(Cl)Cl)N1C(=O)OCC(Cl)(Cl)Cl
inactive: [1] 100 % of control | [3] 105 % of control | [5] 100 % of control
